Patent publication US8039439B2, “Cellular cycle anomalies for targeting oncology and neurodegeneration” (priority 2005, dated 2011)

Assays:
MCF-7 line = settings: literature description; cited from earlier work
PKC∈ = PKC∈ expression in MCF-7 cells (Western blotting, immunofluorescence); format: cell-based, human; settings: TPA 25 nM
Experimental: Western blotting study: Given that the protein sequence of LIV21 has putative PKC phosphorylation sites, including two specific for PKC∈, the inventor tested the variation in the expression of this PKC as a function of the duration of TPA treatment. […] The expression of PKCzeta (PKCζ) is used as an internal control since it is not sensitive to TPA.
The protein extracts are heated at 80° C. for 5 minutes in a Laemmli buffer (pH 7.4, 0.06 M Tris, 3% SDS, 10% glycerol, 1 nM PMSF, β-mercaptoethanol). The migration is carried out by SDS-PAGE (sodium dodecyl sulfate-polyacrylamide gel electrophoresis). 10 to 20 μg of proteins migrate in a 12% polyacrylamide gel for 1 h under denaturing conditions (migration buffer: 25 mM Tris base, 192 mM glycine, 1% SDS, pH 8.3). The proteins are then transferred onto a nitrocellulose membrane (Schleicher & Schuell) for one hour by liquid transfer, in a transfer membrane (25 mM Tris, 192 mM glycine, 20% methanol, pH 8.3). The membranes, saturated in PBS-0.1% Tween-0.1% Triton X100-5% skimmed milk for one hour, are brought into contact with the primary antibody diluted in PBS-0.1% Tween-0.1% Triton X100-1% milk at ambient temperature with gentle agitation for one hour to two hours. After washing, the peroxidase-coupled secondary antibody is incubated with the membranes for 1 h. […]

LIV21 = test: Nuclear translocation of LIV21 in MCF-7 cells (Western blotting of extracts/fractions, immunocytochemistry); format: cell-based, human
Experimental: The results obtained by flow cytometry led the inventor to study, in parallel, the expression of LIV21 in nuclear extracts prepared after 12 h, 24 h, 48 h and 72 h of TPA treatment (FIG. 16A). […] It lasts until the reinitiation of the cell cycle observed at 72 h.
However, it is interesting to note that the expression of LIV21 already begins from 1 h of treatment in certain cells, since they are not synchronous.
The effect of the selective inhibition of the activity of PKC∈ on the nuclear translocation of LIV21 was studied by immunocytochemistry. These experiments were carried out on nontreated cultures or cultures treated for 12 h with TPA at 25 nM or with the peptide at two different concentrations, 1 and 2 μM (FIG. 20).
The protein extracts are heated at 80° C. for 5 minutes in a Laemmli buffer (pH 7.4, 0.06 M Tris, 3% SDS, 10% glycerol, 1 nM PMSF, β-mercaptoethanol). The migration is carried out by SDS-PAGE (sodium dodecyl sulfate-polyacrylamide gel electrophoresis). 10 to 20 μg of proteins migrate in a 12% polyacrylamide gel for 1 h under denaturing conditions (migration buffer: 25 mM Tris base, 192 mM glycine, 1% SDS, pH 8.3). The proteins are then transferred onto a nitrocellulose membrane (Schleicher & Schuell) for one hour by liquid transfer, in a transfer membrane (25 mM Tris, 192 mM glycine, 20% methanol, pH 8.3). The membranes, saturated in PBS-0.1% Tween-0.1% Triton X100-5% skimmed milk for one hour, are brought into contact with the primary antibody diluted in PBS-0.1% Tween-0.1% Triton X100-1% milk at ambient temperature with gentle agitation for one hour to two hours. After washing, the peroxidase-coupled secondary antibody is incubated with the membranes for 1 h. Revelation is carried out by means of a chemiluminescence reaction using the ECL kit according to the supplier's protocol (Amersham).

MCF-7 cells [1] = test: FACS analysis of cell cycle phases in TPA-treated MCF-7 cells; format: cell-based, human
Experimental: However, without any further addition of TPA, the number of cells in the S phase increases again so as to return to the initial state at 72 h of treatment. G2/M phase: The number of cells in the G2/M phase increases from the beginning of the treatment, with a maximum observed at 12 hours (FIG. 15B). G0/G1 phase: The number of cells in the G0/G1 phase is at a minimum at 6 hours and at a maximum at 24 hours (FIG. 15C).
A maximum of cells in the S phase are therefore observed in the early periods of the kinetics (0 h to 6 h), a maximum of cells in the G2/M phase is observed at 12 h and, finally, a maximum of cells in the G0/G1 phase is observed at 24 h. Finally, without any further addition of TPA, the cells return to the S phase at 72 h.

MCF-7 cells [2] = test: Cell growth monitoring (counting) and morphology of MCF-7 cultures with or without TPA; format: cell-based, human; settings: TPA 25 nM
Experimental: It has been described in the literature that TPA induces the arrest of proliferation and the differentiation of tumor cells of the MCF-7 line. In order to validate the culture conditions, the cell growth was monitored (by counting) beforehand over three days of culture in the presence or absence of TPA at a concentration of 25 nM (FIG. 14).
However, in the period of time over which the cells were studied, the secretory phenotype (appearance of granules and of secretory canaliculi) was not observed.

Molecule | proliferation of cells of human mammary tumor lines such as MCF-7 (MCF-7 line) | PKC∈ localization (immunofluorescence) (PKC∈; 12 h) | PKC∈ expression (Western blotting, total extracts) (PKC∈; as a function of duration of treatment) | colocalization of PML and LIV21 (double labeling) (LIV21; 24 h of TPA treatment (25 nM)) | time of maximum nuclear translocation of LIV21 (immunocytochemistry) (LIV21; TPA 25 nM) [h] | anti-LIV21 immunoreactivity in nuclear extracts (Western blot) (LIV21; TPA 25 nM, 12 h, 24 h, 48 h and 72 h) | time of optimal reduction of the number of cells in the S phase (MCF-7 cells [1]; TPA 25 nM, single addition) [h] | time of maximum number of cells in the G0/G1 phase (MCF-7 cells [1]; TPA treatment) [h] | time of maximum number of cells in the G2/M phase (MCF-7 cells [1]; TPA treatment) [h] | time of minimum number of cells in the G0/G1 phase (MCF-7 cells [1]; TPA treatment) [h] | time at which cells reinitiate the cell cycle (MCF-7 cells [1]; after single addition of TPA) [h] | cell morphology / differentiation (MCF-7 cells [2]) | number of cells in control cultures relative to treated cultures (MCF-7 cells [2]; after 3 days of treatment) | cell proliferation (cell counts) (MCF-7 cells [2]; three days of culture) | nuclear translocation of LIV21 (immunocytochemistry) (LIV21; peptide 1 μM, 12 h) | nuclear translocation of LIV21 (immunocytochemistry) (LIV21; peptide 2 μM, 12 h, compared with TPA 25 nM) | nuclear translocation of LIV21 (immunocytochemistry) (LIV21; peptide 2 μM, 12 h, compared with TPA 25 nM, listed as PKCε-inhibiting peptide) | LIV21 expression profile in cytoplasmic and nuclear fractions (cell fractionation, Western blot) (LIV21; peptide 2 μM, 12 h, compared with TPA-treated cultures)
CCCCCCCCCCCCCC(=O)O[C@@H]1[C@@H](C)[C@@]2(O)[C@@H](C=C(CO)C[C@]3(O)C(=O)C(C)=C[C@@H]23)[C@H]2C(C)(C)[C@]12OC(C)=O [TPA] | drastically inhibits the proliferation | disappears from the cytoplasm | decreases from 30 min | colocalized in the nuclei | 12 | maximum anti-LIV21 immunoreactivity was observed from 12 h, was maintained up to 48 h | 12 | 24 | 12 | 6 | 72 | rapidly acquire characteristics of differentiated mammary gland cells | twice as many cells | clearly inhibits proliferation | – | – | – | –
EAVSLKPT (listed as Homo sapiens) [PKC∈-inhibiting peptide] | – | – | – | – | – | – | – | – | – | – | – | – | – | – | absence of nuclear translocation of LIV21 | effect identical to that of TPA | same effectiveness as | same LIV21 expression profile
